Drawing on the RepoRT retention time repository (doi:10.1039/c4mb00346b), this text covers LC retention time for 53 compounds.

The nature of this data set: HILIC, Merck SeQuant ZIC-pHILIC, 150 × 2.1 mm, 5 µm, 0.1 mL/min, estimated dead time 3.3 min; A: acetonitrile; B: water + 10 mM ammonium carbonate; gradient (min/%B) 0/20 30/80. As to conditions: stereoisomer not certain.
In the case of `Nc1ncnc2c1ncn2C1OC(COP(=O)(O)O)C(O)C1O` (stereo not drawn) [AMP], the LC retention time was 11.5 min.

On to `NC(=O)CCC(N)C(=O)O` (stereo not drawn) [Glutamine], for which the LC retention time was 12.2 min.

As for `O=CC(O)COP(=O)(O)O` (stereo not drawn) [Glyceraldehyde-3-phosphate], the LC retention time was 13.2 min.

Take `CC(=O)N[C@H]1C(O)O[C@H](CO)[C@@H](O)[C@@H]1O` (stereo partly drawn) [N-Acetyl-D-glucosamine]: the LC retention time is 9.3 min.

`O=C(O)C=C(CC(=O)O)C(=O)O` [cis-Aconitate]: the LC retention time was 15.5 min.

With `CC(=O)NC(CCC(=O)O)C(=O)O` (stereo not drawn) [N-Acetyl-glutamate], the LC retention time is 11.6 min.

For the compound `Nc1ncnc2c1ncn2C1OC(CSCCC([NH3+])C(=O)[O-])C(O)C1O` (stereo not drawn) [S-Adenosyl-homocysteine], the LC retention time is 11.2 min.

As to `O=P(O)(O)OCC1OC(O)(COP(=O)(O)O)C(O)C1O` (stereo not drawn) [Fructose-1,6-diphosphate], the LC retention time is 15.5 min.

As for `Nc1ncnc2c1ncn2C1OC(CSCC(N)C(=O)O)C(O)C1O` (stereo not drawn) [S-adenosyl-cysteine], the LC retention time is 10.6 min.

On to `Nc1ccn(C2OC(CO)C(O)C2O)c(=O)n1` (stereo not drawn) [Cytidine], for which the LC retention time was 9.1 min.

`Nc1nc2c(ncn2C2OC(COP(=O)(O)OP(=O)(O)O)C(O)C2O)c(=O)[nH]1` (stereo not drawn) [GDP]: the LC retention time is 15.5 min.

For the compound `O=P(O)(O)OC(CO)CO` [Glycerol-2-phosphate], the LC retention time is 12.2 min.

For `NC(=O)c1cccnc1` [Nicotinamide], the LC retention time was 4.7 min.

On to `NCCc1cnc[nH]1` [Histamine], for which the LC retention time is 24.8 min.

Consider `NC(CO)Cc1cnc[nH]1` (stereo not drawn) [Histidinol], for which the LC retention time was 16.3 min.

Consider `O=C(O)C(O)C(O)C(O)C(O)CO` (stereo not drawn) [Gluconate], for which the LC retention time is 11.4 min.

For the compound `OCC1OCC(O)C(O)C1O` (stereo not drawn) [1,5-Anhydroglucitol], the LC retention time was 9.2 min.

As to `Nc1ncnc2c1ncn2C1OC(COP(=O)(O)OP(=O)(O)O)C(O)C1O` (stereo not drawn) [ADP], the LC retention time was 12.4 min.

With `NC(N)=NCCCC(N)C(=O)O` (stereo not drawn) [Arginine], the LC retention time is 24.8 min.

As for `Nc1ncnc2c1ncn2C1OC2COP(=O)(O)OC2C1O` (stereo not drawn) [3',5'-cAMP], the LC retention time is 7.1 min.

For `Nc1nc2c(ncn2C2OC(COP(=O)(O)OP(=O)(O)OC3OC(CO)C(O)C(O)C3O)C(O)C2O)c(=O)[nH]1` (stereo not drawn) [GDP-glucose], the LC retention time is 15.5 min.

In the case of `NCCCC(N)C(=O)O` (stereo not drawn) [Ornithine], the LC retention time is 20.8 min.

As for `C[N+](C)(C)CCCCC(N)C(=O)[O-]` (stereo not drawn) [Trimethyl-lysine], the LC retention time was 20.7 min.

As for `CC(=O)OC(CC(=O)[O-])C[N+](C)(C)C` (stereo not drawn) [Acetyl-carnitine], the LC retention time is 8.5 min.

As for `Cn1c(N)nc2c(ncn2C2OC(CO)C(O)C2O)c1=O` (stereo not drawn) [1-Methyl-guanosine], the LC retention time was 7.1 min.

For the compound `Nc1ccc(C(=O)O)cc1` [4-Aminobenzoate], the LC retention time is 7.2 min.

On to `O=P(O)(O)OCC1OC(OC2OC(CO)C(O)C(O)C2O)C(O)C(O)C1O` (stereo not drawn) [Trehalose-6-phosphate], for which the LC retention time is 14.7 min.

For `O=P(O)(O)OCC1OC(OP(=O)(O)OP(=O)(O)O)C(O)C1O` [PRPP (5-Phospho-alpha-D-ribose 1-diphosphate)], the LC retention time was 16.5 min.

For the compound `O=c1cc[nH]c(=O)[nH]1` [Uracil], the LC retention time is 7.2 min.

Take `C[N+](C)(C)CCOP(=O)(O)OP(=O)([O-])OCC1OC(n2ccc(N)nc2=O)C(O)C1O` (stereo not drawn) [CDP-choline]: the LC retention time was 13 min.

On to `CN(CC(=O)O)C(N)=NP(=O)(O)O` [Phosphocreatine], for which the LC retention time is 12.7 min.

As for `NC(=O)NCCCC(N)C(=O)O` (stereo not drawn) [Citrulline], the LC retention time was 13 min.

Regarding `O=C(O)C(O)CO` (stereo not drawn) [Glyceric acid], the LC retention time was 10.1 min.

`CCC(C)C(NC(C)=O)C(=O)O` (stereo not drawn) [N-Acetyl-(iso)leucine]: the LC retention time is 4.4 min.

For `O=C(O)C1(O)CC(O)C(O)C(O)C1` (stereo not drawn) [Quinic acid], the LC retention time was 10.4 min.

As to `CCC(=O)OC(CC(=O)[O-])C[N+](C)(C)C` (stereo not drawn) [Propionyl-carnitine], the LC retention time is 7.2 min.

Regarding `O=c1ccn(C2OC(COP(=O)(O)O)C(O)C2O)c(=O)[nH]1` (stereo not drawn) [UMP], the LC retention time was 12.6 min.

Turning to `NC(=O)c1ccc[n+](C2OC(COP(=O)(O)OP(=O)(O)OCC3OC(n4cnc5c(N)ncnc54)C(OP(=O)(O)O)C3O)C(O)C2O)c1` (stereo not drawn) [NADP+], the LC retention time is 14.4 min.

In the case of `O=c1[nH]cnc2nc[nH]c12` [Hypoxanthine], the LC retention time is 7.6 min.

For `Nc1ncnc2nc[nH]c12` [Adenine], the LC retention time was 6.6 min.

`O=C(O)C(COP(=O)(O)O)OP(=O)(O)O` (stereo not drawn) [Diphospho-glycerate]: the LC retention time is 15.6 min.

Take `CCCCCCCC(=O)OC(CC(=O)[O-])C[N+](C)(C)C` (stereo not drawn) [Octanoyl-carnitine]: the LC retention time is 4.1 min.

As for `CN(C)c1nc2c(ncn2C2OC(CO)C(O)C2O)c(=O)[nH]1` (stereo not drawn) [Dimethyl-guanosine], the LC retention time is 6 min.

Consider `CC(=O)NC(CCCC[NH3+])C(=O)[O-]` (stereo not drawn) [N2-Acetyl-lysine], for which the LC retention time was 12.7 min.

Take `NC(=O)C1=CN(C2OC(COP(=O)(O)OP(=O)(O)OCC3OC(n4cnc5c(N)ncnc54)C(OP(=O)(O)O)C3O)C(O)C2O)C=CC1` (stereo not drawn) [NADPH]: the LC retention time is 14.8 min.

Regarding `CC(=O)SCCNC(=O)CCNC(=O)C(O)C(C)(C)COP(=O)(O)OP(=O)(O)OCC1OC(n2cnc3c(N)ncnc32)C(O)C1OP(=O)(O)O` (stereo not drawn) [Acetyl-CoA], the LC retention time is 10.5 min.

For `NC(Cc1ccccc1)C(=O)O` (stereo not drawn) [Phenylalanine], the LC retention time is 7.3 min.

In the case of `O=P(O)(O)OCC1OC(O)(CO)C(O)C1O` (stereo not drawn) [Fructose-6-phosphate], the LC retention time was 13.3 min.

As for `O=C(O)C1CCCN1` (stereo not drawn) [Proline], the LC retention time is 10.2 min.

Consider `Nc1ncnc2c1ncn2C1OC(CO)C(O)C1O` (stereo not drawn) [Adenosine], for which the LC retention time is 6.2 min.

With `NCCS(=O)(=O)O` [Taurine], the LC retention time was 12.1 min.

On to `NC(=O)c1ccc[n+](C2OC(COP(=O)(O)OP(=O)(O)OCC3OC(n4cnc5c(N)ncnc54)C(O)C3O)C(O)C2O)c1` (stereo not drawn) [NAD+], for which the LC retention time is 11.9 min.

On to `Nc1ccccc1C(=O)CC(N)C(=O)O` (stereo not drawn) [Kynurenine], for which the LC retention time was 8 min.
